The text below walks through data of patent US12049452B2, “Olaparib hydroxybenzoic acid cocrystals and their pharmaceutical use” (NUFORMIX TECHNOLOGIES LIMITED, priority 2021, dated 2024).

A short description of data set [1]: Solid-state stability study under accelerated storage conditions (XRPD form change, HPLC purity). It is filed as physicochemical. To be noted: 7 days; for Purity: HPLC. As to the method: Bruker D8 X-Ray Powder Diffraction (XRPD) Characterization: X-ray powder diffraction patterns for the samples were acquired on a Bruker D8 diffractometer using Cu Ka radiation (40 kV, 40 mA) and a θ-2θ goniometer fitted with a Ge monochromator. The incident beam passes through a 2.0 mm divergence slit followed by a 0.2 mm anti-scatter slit and knife edge. The diffracted beam passes through an 8.0 mm receiving slit with 2.5° Soller slits followed by the Lynxeye Detector. The software used for data collection and analysis was Diffrac Plus XRD Commander and Diffrac Plus EVA respectively. Samples were run under ambient conditions over an angular range of 2° to 42° 2θ (using a step size of 0.05° 2θ and a step time of 0.5 seconds) as flat plate specimens using powder as received. The sample was prepared on a polished, zero-background (510) silicon wafer by gently pressing onto the flat surface or packed into a cut cavity. The sample was rotated in its own plane. Small D8 disc recess holders were used to prepare samples.
Chemical Purity Determination by HPLC: Purity analysis was performed on an Agilent HP1100/Infinity II 1260 series system equipped with a diode array detector and using Open LAB software.
A study was carried out to examine the physical stability of the olaparib hydroxybenzoic acid cocrystals with respect to solid form conversion or signs of decomposition over time under accelerated storage conditions. The 1:1 olaparib gentisic acid cocrystal, 2:1 olaparib gentisic acid cocrystal, 1:1 olaparib 2,4-dihydroxybenzoic acid cocrystal, 2:1 2,4-dihydroxybenzoic acid cocrystal, and the 2:1 olaparib 4-hydroxybenzoic acid cocrystal were separately stored at 40° C./75% relative humidity and 25° C./97% relative humidity for 7 days. After this time, all samples remained as white solids with no signs of deliquescence. Each sample was analysed by XRPD to observe any potential form changes and by HPLC to determine purity so as to determine any signs of decomposition.

Data set [2] is described as follows: Gravimetric Vapour Sorption (GVS) moisture sorption isotherm. It is filed as physicochemical. To be noted: for XRPD analysis of the sample post GVS (cocrystal structure): after GVS isotherm. The protocol: Gravimetric Vapour Sorption (GVS): Sorption isotherms were obtained using a SMS DVS Intrinsic moisture sorption analyzer, controlled by DVS Intrinsic Control software. The sample temperature was maintained at 25° C. by the instrument controls. The humidity was controlled by mixing streams of dry and wet nitrogen, with a total flow rate of 200 ml/min. The relative humidity was measured by a calibrated Rotronic probe (dynamic range of 1.0-100% RH), located near the sample. The weight change, (mass relaxation) of the sample as a function of % RH was constantly monitored by a microbalance (accuracy ±0.005 mg).
Typically, 5-30 mg of sample was placed in a tared mesh stainless steel basket under ambient conditions. The sample was loaded and unloaded at 40% RH and 25° C. (typical room conditions). A moisture sorption isotherm was performed as outlined in Table 1 (2 scans per complete cycle). The standard isotherm was performed at 25° C. at 10% RH intervals over a 0-90% RH range. Typically, a double cycle (4 scans) was carried out. Data analysis was carried out within Microsoft Excel using the DVS Analysis Suite. The sample was recovered after completion of the isotherm and re-analyzed by XRPD.

Data set [3] in a line: Dissolution study in simulated intestinal fluid (FaSSIF V2), Pion inForm instrument. It is filed as physicochemical. The following applies: FaSSIF V2 pH 6.5, 37° C. The source says: As described in US 2018/0113216, the oral bioavailability of olaparib is dependent on both the dissolution rate and overall solubility of the drug in the gastro-intestinal (GI) tract. US 2018/0113216 describes how olaparib has a propensity for efflux by P-gp at concentrations limiting its permeability and thus limiting its absorption from the GI tract. This efflux ratio is lowered as the concentration of drug in solution increases. Thus, to minimize this efflux issue and achieve optimal absorption and bioavailability it is essential to find a form of olaparib that has as high a dissolution rate as possible in the GI tract and that also maintains a high level of solubility over a sufficient period of time to allow the drug to be absorbed into the blood stream. […] The dissolution study was carried out using 50 mL simulated intestinal fluid (FaSSIF V2) at pH 6.5 (37° C.) using a quantity of each olaparib form equivalent to 25 mg olaparib. […] Detection and quantification of olaparib was performed by in-situ UV-spectroscopy using a fibre-optic probe, allowing instantaneous data collection from the point of sample introduction. UV absorption data was converted to mg/mL (±0.2 mg/mL) using a previously determined pH dependent molar extinction coefficients to quantitate the amount of dissolved drug.

The conditions of data set [4]: low solubility and low permeability; cited from earlier work.
Where [5] appears, read: across the 0-90% relative humidity range at 25° C. under nitrogen.

For `O=C(O)c1ccc(O)cc1O.O=C(c1cc(Cc2n[nH]c(=O)c3ccccc23)ccc1F)N1CCN(C(=O)C2CC2)CC1`, in data set [1] (25° C./97% RH), the “XRPD Analysis” value is “No change” and the Purity is on record as 99.22%. Also, in data set [1] (40° C./75 RH), the “XRPD Analysis” value is “No change” and the Purity worked out at 99.43%.

Regarding `O=C(O)c1ccc(O)cc1O.O=C(c1cc(Cc2n[nH]c(=O)c3ccccc23)ccc1F)N1CCN(C(=O)C2CC2)CC1.O=C(c1cc(Cc2n[nH]c(=O)c3ccccc23)ccc1F)N1CCN(C(=O)C2CC2)CC1`, the “reversibly absorbed moisture (GVS)” value in data set [2] (setting [5]) is given as 4.5 % w/w; in data set [2] (between 0 and 5% RH, 25° C.) it was 2.5 % w/w. The “XRPD analysis of the sample post GVS (cocrystal structure)” value (“XRPD analysis of the sample post GVS” below) in data set [2] is reported as “unchanged”. Moreover, the “XRPD Analysis” value in data set [1] (25° C./97% RH) and in data set [1] (40° C./75 RH) was “No change” each time. Further, the Purity came out at 99.64% in data set [1] (25° C./97% RH) and 99.45% in data set [1] (40° C./75 RH).

As to `O=C(O)c1ccc(O)cc1.O=C(c1cc(Cc2n[nH]c(=O)c3ccccc23)ccc1F)N1CCN(C(=O)C2CC2)CC1.O=C(c1cc(Cc2n[nH]c(=O)c3ccccc23)ccc1F)N1CCN(C(=O)C2CC2)CC1`, the “reversibly absorbed moisture (GVS)” value in data set [2] (setting [5]) is on record as 3.4 % w/w; in data set [2] (between 0 and 5% RH, 25° C.) it was 1.5 % w/w. In addition, the “XRPD analysis of the sample post GVS” value in data set [2] is on record as “unchanged”. For the same compound, the “XRPD Analysis” value in data set [1] (25° C./97% RH) and in data set [1] (40° C./75 RH) was “No change” in each case. Besides, the values for the Purity in data set [1] (25° C./97% RH) and in data set [1] (40° C./75 RH) were 99.69% and 99.70%, respectively.

With `O=C(O)c1cc(O)ccc1O.O=C(c1cc(Cc2n[nH]c(=O)c3ccccc23)ccc1F)N1CCN(C(=O)C2CC2)CC1` [1:1 olaparib gentisic acid cocrystal], the “XRPD Analysis” value in data set [1] (25° C./97% RH) and in data set [1] (40° C./75 RH) was “No change” in each case. Besides, the results for the Purity in data set [1] (25° C./97% RH) and in data set [1] (40° C./75 RH) were 99.79% and 99.70%, respectively.

Regarding `O=C(O)c1cc(O)ccc1O.O=C(c1cc(Cc2n[nH]c(=O)c3ccccc23)ccc1F)N1CCN(C(=O)C2CC2)CC1.O=C(c1cc(Cc2n[nH]c(=O)c3ccccc23)ccc1F)N1CCN(C(=O)C2CC2)CC1` [2:1 olaparib gentisic acid cocrystal], the “reversibly absorbed moisture (GVS)” value in data set [2] (setting [5]) amounted to 3.4 % w/w; in data set [2] (between 0 and 5% RH, 25° C.), 1.6 % w/w. Also, the “XRPD analysis of the sample post GVS” value in data set [2] is on record as “unchanged”. In addition, the “XRPD Analysis” value in data set [1] (25° C./97% RH) and in data set [1] (40° C./75 RH) was “No change” each time. Further, the Purity in data set [1] (25° C./97% RH) is 99.64%; in data set [1] (40° C./75 RH), 99.59%.

As to `O=C(c1cc(Cc2n[nH]c(=O)c3ccccc23)ccc1F)N1CCN(C(=O)C2CC2)CC1` [milled olaparib form A], the “amount of olaparib dissolved after particle size reduction” value in data set [3] (any one timepoint over a 30-minute time period, compared with form A as supplied) was “overall decrease in the amount of olaparib dissolved”. Besides, the “rate of dissolution after particle size reduction” value in data set [3] (compared with olaparib form A as supplied) is “lower rate of dissolution”.

On to `O=C(c1cc(Cc2n[nH]c(=O)c3ccccc23)ccc1F)N1CCN(C(=O)C2CC2)CC1` [olaparib, 4-[(3-{[4-(cyclopropylcarbonyl)piperazin-1-yl]carbonyl}-4-fluorophenyl)methyl]phthalazin-1(2H)-one], for which the BCS class entry in data set [4] is listed as “class 4”.
